Laboratory results taken from patent US11497212B2, “Substituted thiophenyl uracils, salts thereof and the use thereof as herbicidal agents” (Syngenta Crop Protection AG, priority 2017, dated 2022).

Columns and labels:
Assay type in all cases: in vivo
Triticum aestivum = experiment: Crop compatibility post-emergence (greenhouse pot trial)
In short: (§1)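 Compatibility is expressed as visually scored percent injury, where 0% means no difference from untreated controls and 100% means dead plants, assessed about 3 weeks after a foliar spray at 600 L/ha with 0.5% additive on one-leaf-stage pot plants in sandy loam.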

Oryza sativa = experiment: as above
In short: as §1

Setaria viridis [1] = experiment: Herbicidal action pre-emergence (greenhouse pot trial); details: scored after about 3 weeks
In short: (§2)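 Pots containing sown seeds beneath a soil layer were sprayed with the test formulations at an application rate of 320 g/ha or lower. Percent efficacy was assigned by eye about three weeks afterwards, with dead plants scored as 100%.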

Viola tricolor [2] = experiment: as above; details: scored after about 3 weeks
In short: as §2

Amaranthus retroflexus [3] = experiment: as above; details: scored after about 3 weeks
In short: as §2

Echinochloa crus-galli [4] = experiment: as above; details: application rate 320 g/ha, scored after about 3 weeks
In short: as §2

Pharbitis purpurea [5] = experiment: as above
In short: as §2

Alopecurus myosuroides [6] = experiment: as above; details: application rate 320 g/ha, scored after about 3 weeks
In short: as §2

Matricaria inodora [7] = experiment: as above; details: scored after about 3 weeks
In short: as §2

Digitaria sanguinalis [8] = experiment: as above; details: application rate 80 g/ha
In short: as §2

Avena fatua = experiment: as above; details: application rate 320 g/ha
In short: as §2

Stellaria media [9] = experiment: as above; details: scored after about 3 weeks
In short: as §2

Abutilon theophrasti [10] = experiment: as above; details: scored after about 3 weeks
In short: as §2

Lolium rigidum [11] = experiment: as above; details: application rate 320 g/ha
In short: as §2

Veronica persica [12] = experiment: as above
In short: as §2

Setaria viridis [13] = experiment: Herbicidal action post-emergence (greenhouse pot trial); details: scored visually after about 3 weeks vs untreated controls
In short: (§3)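 Percent herbicidal efficacy, assessed by eye about 3 weeks after spraying, compares treated with untreated plants. Treatment is a post-emergence spray at the one-leaf stage, using a WP or EC preparation plus 0.5% additive in 600 L/ha of water, at 80 g/ha or lower.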

Viola tricolor [14] = experiment: as above
In short: as §3

Amaranthus retroflexus [15] = experiment: as above; details: scored visually after about 3 weeks vs untreated controls
In short: as §3

Echinochloa crus-galli [16] = experiment: as above; details: scored visually after about 3 weeks vs untreated controls
In short: as §3

Polygonum convolvulus = experiment: as above; details: scored visually after about 3 weeks vs untreated controls
In short: as §3

Pharbitis purpurea [17] = experiment: as above
In short: as §3

Alopecurus myosuroides [18] = experiment: as above; details: application rate 80 g/ha, scored visually after about 3 weeks vs untreated controls
In short: as §3

Matricaria inodora [19] = experiment: as above; details: scored visually after about 3 weeks vs untreated controls
In short: as §3

Digitaria sanguinalis [20] = experiment: as above
In short: as §3

Stellaria media [21] = experiment: as above; details: scored visually after about 3 weeks vs untreated controls
In short: as §3

Abutilon theophrasti [22] = experiment: as above; details: scored visually after about 3 weeks vs untreated controls
In short: as §3

Lolium rigidum [23] = experiment: as above; details: application rate 80 g/ha, scored visually after about 3 weeks vs untreated controls
In short: as §3

Veronica persica [24] = experiment: as above
In short: as §3

Zea mays [25] = experiment: Crop compatibility pre-emergence (greenhouse pot trial); details: effect vs untreated controls
In short: (§4)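 After soil-surface application of each compound to freshly sown pots (aqueous spray, 600 L/ha, 0.5% additive), plants grew under greenhouse conditions. Around 3 weeks later, injury was estimated visually on a 0–100% scale against controls.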

Glycine max = experiment: as above; details: effect vs untreated controls
In short: as §4

Hordeum murinum = experiment: Herbicidal action post-emergence (greenhouse pot trial); details: application rate 80 g/ha, scored visually after about 3 weeks vs untreated controls
In short: as §3

Zea mays [26] = experiment: Crop compatibility post-emergence (greenhouse pot trial); details: application rate 20 g/ha
In short: as §1

Cn1c(C(F)(F)F)cc(=O)n(-c2cc(SCC(C)(C)C(=O)OCC3CCOC3)c(Cl)cc2F)c1=O (stereo not drawn) [I.48-72]
80%: Avena fatua (Efficacy in %) (Avena fatua) | Lolium rigidum (Efficacy in %) (Lolium rigidum [11]) | Lolium rigidum (Efficacy in %) (Lolium rigidum [23])
20%: Triticum aestivum (Efficacy in %) (Triticum aestivum; application rate 20 g/ha)
90%: Alopecurus myosuroides (Efficacy in %) (Alopecurus myosuroides [6]) | Alopecurus myosuroides (Efficacy in %) (Alopecurus myosuroides [18])
10%: Oryza sativa (Efficacy in %) (Oryza sativa; application rate 20 g/ha) | Glycine max (Efficacy in %) (Glycine max; application rate 320 g/ha)
0%: Oryza sativa (Efficacy in %) (Oryza sativa; application rate 5 g/ha) | Zea mays (Efficacy in %) (Zea mays [25]; application rate 320 g/ha)
100%: Setaria viridis (Efficacy in %) (Setaria viridis [1]; application rate 320 g/ha) | Viola tricolor (Efficacy in %) (Viola tricolor [2]; application rate 320 g/ha) | Amaranthus retroflexus (Efficacy in %) (Amaranthus retroflexus [3]; application rate 320 g/ha) | Echinochloa crus-galli (Efficacy in %) (Echinochloa crus-galli [4]) | Pharbitis purpurea (Efficacy in %) (Pharbitis purpurea [5]; application rate 320 g/ha) | Matricaria inodora (Efficacy in %) (Matricaria inodora [7]; application rate 320 g/ha) | Digitaria sanguinalis (Efficacy in %) (Digitaria sanguinalis [8]) | Stellaria media (Efficacy in %) (Stellaria media [9]; application rate 320 g/ha) | Abutilon theophrasti (Efficacy in %) (Abutilon theophrasti [10]; application rate 320 g/ha) | Veronica persica (Efficacy in %) (Veronica persica [12]; application rate 320 g/ha) | Setaria viridis (Efficacy in %) (Setaria viridis [13]; application rate 80 g/ha) | Viola tricolor (Efficacy in %) (Viola tricolor [14]; application rate 80 g/ha) | Amaranthus retroflexus (Efficacy in %) (Amaranthus retroflexus [15]; application rate 80 g/ha) | Echinochloa crus-galli (Efficacy in %) (Echinochloa crus-galli [16]; application rate 80 g/ha) | Polygonum convolvulus (Efficacy in %) (Polygonum convolvulus; application rate 80 g/ha) | Pharbitis purpurea (Efficacy in %) (Pharbitis purpurea [17]; application rate 80 g/ha) | Matricaria inodora (Efficacy in %) (Matricaria inodora [19]; application rate 80 g/ha) | Digitaria sanguinalis (Efficacy in %) (Digitaria sanguinalis [20]; application rate 80 g/ha) | Stellaria media (Efficacy in %) (Stellaria media [21]; application rate 80 g/ha) | Abutilon theophrasti (Efficacy in %) (Abutilon theophrasti [22]; application rate 80 g/ha) | Veronica persica (Efficacy in %) (Veronica persica [24]; application rate 80 g/ha)

Cn1c(C(F)(F)F)cc(=O)n(-c2cc(SCC(C)(C)C(=O)OCC3CCCO3)c(Cl)cc2F)c1=O (stereo not drawn) [I.48-71]
80%: Avena fatua (Efficacy in %) (Avena fatua) | Hordeum murinum (Efficacy in %) (Hordeum murinum) | Lolium rigidum (Efficacy in %) (Lolium rigidum [23])
90%: Lolium rigidum (Efficacy in %) (Lolium rigidum [11]) | Alopecurus myosuroides (Efficacy in %) (Alopecurus myosuroides [18])
0%: Glycine max (Efficacy in %) (Glycine max; application rate 20 g/ha)
100%: Setaria viridis (Efficacy in %) (Setaria viridis [1]; application rate 320 g/ha) | Viola tricolor (Efficacy in %) (Viola tricolor [2]; application rate 320 g/ha) | Amaranthus retroflexus (Efficacy in %) (Amaranthus retroflexus [3]; application rate 320 g/ha) | Echinochloa crus-galli (Efficacy in %) (Echinochloa crus-galli [4]) | Pharbitis purpurea (Efficacy in %) (Pharbitis purpurea [5]; application rate 320 g/ha) | Alopecurus myosuroides (Efficacy in %) (Alopecurus myosuroides [6]) | Matricaria inodora (Efficacy in %) (Matricaria inodora [7]; application rate 320 g/ha) | Digitaria sanguinalis (Efficacy in %) (Digitaria sanguinalis [8]) | Stellaria media (Efficacy in %) (Stellaria media [9]; application rate 320 g/ha) | Abutilon theophrasti (Efficacy in %) (Abutilon theophrasti [10]; application rate 320 g/ha) | Veronica persica (Efficacy in %) (Veronica persica [12]; application rate 320 g/ha) | Setaria viridis (Efficacy in %) (Setaria viridis [13]; application rate 80 g/ha) | Viola tricolor (Efficacy in %) (Viola tricolor [14]; application rate 80 g/ha) | Amaranthus retroflexus (Efficacy in %) (Amaranthus retroflexus [15]; application rate 80 g/ha) | Echinochloa crus-galli (Efficacy in %) (Echinochloa crus-galli [16]; application rate 80 g/ha) | Polygonum convolvulus (Efficacy in %) (Polygonum convolvulus; application rate 80 g/ha) | Pharbitis purpurea (Efficacy in %) (Pharbitis purpurea [17]; application rate 80 g/ha) | Matricaria inodora (Efficacy in %) (Matricaria inodora [19]; application rate 80 g/ha) | Digitaria sanguinalis (Efficacy in %) (Digitaria sanguinalis [20]; application rate 80 g/ha) | Stellaria media (Efficacy in %) (Stellaria media [21]; application rate 80 g/ha) | Abutilon theophrasti (Efficacy in %) (Abutilon theophrasti [22]; application rate 80 g/ha) | Veronica persica (Efficacy in %) (Veronica persica [24]; application rate 80 g/ha)
20%: Triticum aestivum (Efficacy in %) (Triticum aestivum; application rate 20 g/ha) | Oryza sativa (Efficacy in %) (Oryza sativa; application rate 20 g/ha) | Zea mays (Efficacy in %) (Zea mays [25]; application rate 320 g/ha)

CCOCCOC(=O)C(C)Sc1cc(-n2c(=O)cc(C(F)(F)F)n(C)c2=O)c(F)cc1Cl (stereo not drawn) [I.1-2]
100%: Setaria viridis (Efficacy in %) (Setaria viridis [1]; application rate 320 g/ha) | Viola tricolor (Efficacy in %) (Viola tricolor [2]; application rate 320 g/ha) | Amaranthus retroflexus (Efficacy in %) (Amaranthus retroflexus [3]; application rate 320 g/ha) | Echinochloa crus-galli (Efficacy in %) (Echinochloa crus-galli [4]) | Pharbitis purpurea (Efficacy in %) (Pharbitis purpurea [5]; application rate 320 g/ha) | Matricaria inodora (Efficacy in %) (Matricaria inodora [7]; application rate 320 g/ha) | Digitaria sanguinalis (Efficacy in %) (Digitaria sanguinalis [8]) | Stellaria media (Efficacy in %) (Stellaria media [9]; application rate 320 g/ha) | Abutilon theophrasti (Efficacy in %) (Abutilon theophrasti [10]; application rate 320 g/ha) | Veronica persica (Efficacy in %) (Veronica persica [12]; application rate 320 g/ha) | Setaria viridis (Efficacy in %) (Setaria viridis [13]; application rate 80 g/ha) | Viola tricolor (Efficacy in %) (Viola tricolor [14]; application rate 80 g/ha) | Amaranthus retroflexus (Efficacy in %) (Amaranthus retroflexus [15]; application rate 80 g/ha) | Echinochloa crus-galli (Efficacy in %) (Echinochloa crus-galli [16]; application rate 80 g/ha) | Polygonum convolvulus (Efficacy in %) (Polygonum convolvulus; application rate 80 g/ha) | Pharbitis purpurea (Efficacy in %) (Pharbitis purpurea [17]; application rate 80 g/ha) | Matricaria inodora (Efficacy in %) (Matricaria inodora [19]; application rate 80 g/ha) | Digitaria sanguinalis (Efficacy in %) (Digitaria sanguinalis [20]; application rate 80 g/ha) | Stellaria media (Efficacy in %) (Stellaria media [21]; application rate 80 g/ha) | Abutilon theophrasti (Efficacy in %) (Abutilon theophrasti [22]; application rate 80 g/ha) | Lolium rigidum (Efficacy in %) (Lolium rigidum [23]) | Veronica persica (Efficacy in %) (Veronica persica [24]; application rate 80 g/ha)
0%: Zea mays (Efficacy in %) (Zea mays [25]; application rate 20 g/ha)
80%: Alopecurus myosuroides (Efficacy in %) (Alopecurus myosuroides [6])
90%: Avena fatua (Efficacy in %) (Avena fatua) | Lolium rigidum (Efficacy in %) (Lolium rigidum [11]) | Alopecurus myosuroides (Efficacy in %) (Alopecurus myosuroides [18])
20%: Triticum aestivum (Efficacy in %) (Triticum aestivum; application rate 5 g/ha)

CC(Sc1cc(-n2c(=O)cc(C(F)(F)F)n(C)c2=O)c(F)cc1Cl)C(=O)OCC1CCSC1 (stereo not drawn) [I.1-82]
100%: Setaria viridis (Efficacy in %) (Setaria viridis [1]; application rate 80 g/ha) | Viola tricolor (Efficacy in %) (Viola tricolor [2]; application rate 80 g/ha) | Amaranthus retroflexus (Efficacy in %) (Amaranthus retroflexus [3]; application rate 80 g/ha) | Pharbitis purpurea (Efficacy in %) (Pharbitis purpurea [5]; application rate 80 g/ha) | Matricaria inodora (Efficacy in %) (Matricaria inodora [7]; application rate 80 g/ha) | Stellaria media (Efficacy in %) (Stellaria media [9]; application rate 80 g/ha) | Abutilon theophrasti (Efficacy in %) (Abutilon theophrasti [10]; application rate 80 g/ha) | Veronica persica (Efficacy in %) (Veronica persica [12]; application rate 80 g/ha) | Viola tricolor (Efficacy in %) (Viola tricolor [14]; application rate 20 g/ha) | Amaranthus retroflexus (Efficacy in %) (Amaranthus retroflexus [15]; application rate 20 g/ha) | Echinochloa crus-galli (Efficacy in %) (Echinochloa crus-galli [16]; application rate 20 g/ha) | Polygonum convolvulus (Efficacy in %) (Polygonum convolvulus; application rate 20 g/ha) | Pharbitis purpurea (Efficacy in %) (Pharbitis purpurea [17]; application rate 20 g/ha) | Matricaria inodora (Efficacy in %) (Matricaria inodora [19]; application rate 20 g/ha) | Digitaria sanguinalis (Efficacy in %) (Digitaria sanguinalis [20]; application rate 20 g/ha) | Abutilon theophrasti (Efficacy in %) (Abutilon theophrasti [22]; application rate 20 g/ha) | Veronica persica (Efficacy in %) (Veronica persica [24]; application rate 20 g/ha)
0%: Triticum aestivum (Efficacy in %) (Triticum aestivum; application rate 5 g/ha) | Zea mays (Efficacy in %) (Zea mays [25]; application rate 80 g/ha)
20%: Zea mays (Efficacy in %) (Zea mays [26])
80%: Digitaria sanguinalis (Efficacy in %) (Digitaria sanguinalis [8]) | Setaria viridis (Efficacy in %) (Setaria viridis [13]; application rate 20 g/ha) | Stellaria media (Efficacy in %) (Stellaria media [21]; application rate 20 g/ha)
10%: Oryza sativa (Efficacy in %) (Oryza sativa; application rate 20 g/ha)
